The values that follow come from patent US4052436A, “Fluorene-2-acetic acids and derivatives, process and method of using” (E. R. Squibb & Sons, Inc., priority 1976, dated 1977).

Test [1] has as its system carrageenin-induced edema in the hind paw of the rat. The experiment in a line: carrageenin-induced edema assay (oral, hind paw). The format is in vivo. Particulars: 5 h, carrageenin injected into hind paw 2 h after dose, edema weighed 3 h after injection, read-out: ID50 (calculated dose that produces 50 percent inhibition of the edema). The method, then:
The anti-inflammatory activities of fluorene-2-acetic acid and its derivatives may be tested by a carrageenin-induced edema assay. Carrageenin injected into the footpad of rats produces an edematous condition, due mainly to vaso-active mediators. The compound to be tested is administered orally and assessed for inhibition of the edema.
The following examples show the anti-inflammatory activity of fluorene-2-acetic acid and 7-chloro-fluorene-2-acetic acid as determined by carrageenin-induced edema assay.
The procedure for these experiments is to first orally administer the test compound to a rat. Two hours later a solution of carrageenin is injected into the plantar surface of the hind paw of the rat. Three hours after the injection (5 hours after administration of the drug) the edema in the treated paw is measured by weighing the paws. To establish the baseline, the weight of the contralateral paw is determined. A dose-response curve is established, and the activity of the drug is recorded as the calculated dose that produces 50 percent inhibition (ID50) of the edema.

A short description of test [2]: anti-inflammatory activity of the optical isomers and dl mixture (test not specified). The test is classed as in vivo. Particulars: α-methyl-fluorene-2-acetic acid, d and l optical isomers and dl mixture.

Regarding `O=C(O)Cc1ccc2c(c1)Cc1cc(Cl)ccc1-2` [7-chloro-fluorene-2-acetic acid], the ED50 in test [1] is about 150 mg/kg.

For the compound `CC(C(=O)O)c1ccc2c(c1)Cc1ccccc1-2` (stereo not drawn) [dl mixture, α-Methyl fluorene-2-acetic acid], the anti-inflammatory activity result in test [2] was “possesses anti-inflammatory activity”.

Consider `CC(C(=O)O)c1ccc2c(c1)Cc1ccccc1-2` (single isomer, unassigned) [d, α-methyl-fluorene-2-acetic acid], for which the anti-inflammatory activity result in test [2] is on record as “possesses anti-inflammatory activity”.

For `O=C(O)Cc1ccc2c(c1)Cc1ccccc1-2` [fluorene-2-acetic acid], in test [1], the ED50 was 67 mg/kg.

With `CC(C(=O)O)c1ccc2c(c1)Cc1ccccc1-2` (single isomer, unassigned) [l, α-methyl-fluorene-2-acetic acid], the anti-inflammatory activity entry in test [2] is given as “possesses anti-inflammatory activity”.
